Results reported in article PMC3841161, “De Novo Design and Synthesis of Ultra-Short Peptidomimetic Antibiotics Having Dual Antimicrobial and Anti-Inflammatory Activities” (PLoS ONE, 2013).
Residues, ends and D or L forms follow the SMILES beside them. No end group written: not given here.

Columns and labels:
[1] = test system: E. coli [KCTC 1682]; assay type: cell-based, Escherichia coli; details: KCTC 1682, 20 h
Protocol: (§1) The antimicrobial activity of the peptides against two Gram-positive bacterial strains and two Gram-negative bacterial strains was examined using the broth microdilution method in sterile 96-well plates. Aliquots (100 µL) of a bacterial suspension at 2×10^6 colony-forming units (CFU)/mL in 1% peptone were added to 100 µL of the peptide solution (serial two-fold dilutions in 1% peptone). After incubation for 18−20 h at 37°C, bacterial growth inhibition was determined by measuring the absorbance at 600 nm with a Microplate Autoreader EL 800 (Bio-Tek Instruments, VT). The minimal inhibitory concentration (MIC) was defined as the minimum peptide concentration inhibited bacteria growth. Two types of Gram-positive bacteria (S. epidermidis [KCTC 1917] and S. aureus [KCTC 1621]) and two types of Gram-negative bacteria (E. coli [KCTC 1682] and P. aeruginosa [KCTC 1637]) were procured from the Korean Collection for Type Cultures (KCTC) at the Korea Research Institute of Bioscience and Biotechnology (KRIBB). MRSA samples (CCARM 3089, CCARM 3090, and CCARM 3095) were obtained from the Culture Collection of Antibiotic-Resistant Microbes (CCARM) at Seoul Women's University (Seoul, Korea).

[2] = test system: P. aeruginosa [KCTC 1637]; assay type: cell-based, Pseudomonas aeruginosa; details: KCTC 1637, 20 h
Protocol: as §1

[3] = test system: S. epidermidis [KCTC 1917]; assay type: cell-based, Staphylococcus epidermidis; details: KCTC 1917, 20 h
Protocol: as §1

[4] = test system: S. aureus [KCTC 1621]; assay type: cell-based, Staphylococcus aureus; details: KCTC 1621, 20 h
Protocol: as §1

[5] = test system: four bacterial strains (E. coli, P. aeruginosa, S. epidermidis, S. aureus); assay type: cell-based; details: 20 h
Protocol: (§2) The prokaryotic selectivity of our designed HDAMPs is defined by the therapeutic index (TI) as a measure of the relative safety of the drug. It is a measure of a peptide's capability to differentiate any pathogen from a host cell. The TI value of each peptide was calculated as the ratio of the HC10 (the peptide concentration that produces 10% hemolysis toward hRBCs) to the geometric mean [GM; the geometric mean of the minimal inhibitory concentration (MIC) against four selected bacterial strains]. Larger values of TI correspond to greater prokaryotic selectivity.
as §1

[6] = test system: hRBCs versus four bacterial strains; assay: Prokaryotic selectivity (therapeutic index, HC10/GM); details: ratio of HC10 to GM; 512 µg/mL used for HC10 >256 and 128 µg/mL for MIC >64
Protocol: as §2

[7] = test system: MRSA 1 [CCARM 3089]; assay type: cell-based, methicillin-resistant Staphylococcus aureus; details: CCARM 3089, 20 h
Protocol: as §1

[8] = test system: MRSA 2 [CCARM 3090]; assay type: cell-based, methicillin-resistant Staphylococcus aureus; details: CCARM 3090, 20 h
Protocol: as §1

[9] = test system: MRSA 3 [CCARM 3095]; assay type: cell-based, methicillin-resistant Staphylococcus aureus; details: CCARM 3095, 20 h
Protocol: as §1

[10] = test system: trypsin; assay: Protease stability by RP HPLC; assay type: in vitro ADME; details: 5 µL of 10 mg/mL peptide in 25 µL of 0.2-µg/mL trypsin in PBS, 37°C, 0, 0.5, 1.0, 2.0 and 4 h; C18 RP-HPLC, 224 nm
Protocol: Five microliters of an aqueous peptide stock solution (10 mg/mL) were added to 25 µL of the 0.2-µg/mL trypsin solution in PBS, respectively, and incubated at 37°C for 0, 0.5, 1.0, 2.0, and 4 h. The 5-µL solution was taken out at each time interval and immediately frozen with liquid nitrogen. Individually thawed samples were loaded onto a C18 reverse-phase column for HPLC analysis (5 µm; 4.6 mm ×250 mm; Vydac). Peptides were eluted by a 60-min linear gradient of 0–90% (v/v) acetonitrile in water containing 0.05% (v/v) trifluoroacetic acid with a flow rate of 1 mL/min and detection of 224 nm.

[11] = test system: trypsin; assay: Protease stability by radial diffusion assay; assay type: in vitro ADME; details: 5 µL of 10 mg/mL peptide in 25 µL of 0.2-µg/mL trypsin in PBS, 37°C, text: 24 h, method: 6 h
Protocol: E. coli (KCTC 1682) was grown overnight for 18 h at 37°C in 10 mL of LB broth, and then 10 µl of this culture was inoculated into 10 mL of fresh LB and incubated for an additional 3 h at 37°C to obtain mid-logarithmic-phase organisms. For the radial diffusion assay method, a bacteria suspension (2×10^6 CFU/mL in LB) was mixed with 0.7% agarose. The mixture was poured into a 10-cm petri dish after rapidly dispersing. Five microliters of an aqueous peptide stock solution (10 mg/mL) were added to 25 µL of the 0.2-µg/mL trypsin solution in PBS, respectively, and incubated at 37°C for 6 h. The reaction was stopped by freezing with liquid nitrogen, and then 10-µL aliquots were placed in each circle paper (≈6 mm in diameter) put on the agarose plates and then incubated at 37°C overnight. The diameters of the bacterial clearance zones surrounding the circle paper were measured for the quantitation of inhibitory activities.

| Molecule | Minimal Inhibitory Concentration (MIC) E. coli [KCTC 1682] [1] | Minimal Inhibitory Concentration (MIC) P. aeruginosa [KCTC 1637] [2] | Minimal Inhibitory Concentration (MIC) S. epidermidis [KCTC 1917] [3] | Minimal Inhibitory Concentration (MIC) S. aureus [KCTC 1621] [4] | GM, geometric mean of the MIC values against four bacterial strains [5] | TI (HC10/GM), therapeutic index [6] | Minimal Inhibitory Concentration (MIC) MRSA 1 [CCARM 3089] [7] | Minimal Inhibitory Concentration (MIC) MRSA 2 [CCARM 3090] [8] | Minimal Inhibitory Concentration (MIC) MRSA 3 [CCARM 3095] [9] | resistance to proteolysis by trypsin, remaining peptide by RP-HPLC (in words) [10] | antimicrobial activity against E. coli (KCTC 1682) in the presence of trypsin (in words) [11] |
| --- | --- | --- | --- | --- | --- | --- | --- | --- | --- | --- | --- |
| N=C(N)NCCC[C@H](NC(=O)[C@H](Cc1c[n+](CCCCCCCc2ccccc2)cn1CCCCCCCc1ccccc1)NC(=O)[C@@H](N)CCCNC(=N)N)C(N)=O [HDAMP-1, Arg-His((CH2)7C6H5)2-Arg-NH2] | 4 (4.9) µg/mL | 4 (4.9) µg/mL | 2 (2.5) µg/mL | 4 (4.9) µg/mL | 3.5 (4.3) µg/mL | 10.3 | 2 (2.5) µg/mL | 2 (2.5) µg/mL | 2 (2.5) µg/mL | fully resistant |  |
| N=C(N)NCCC[C@H](NC(=O)[C@H](Cc1c[n+](CCCc2ccccc2)cn1CCCc1ccccc1)NC(=O)[C@@H](N)CCCNC(=N)N)C(N)=O [HDAMP-2] | 4 (5.7) µg/mL | 16 (22.7) µg/mL | 8 (11.4) µg/mL | 8 (11.4) µg/mL | 9 (12.8) µg/mL | 56.9 | 16 (22.7) µg/mL | 32 (45.5) µg/mL | 16 (22.7) µg/mL |  |  |
| N=C(N)NCCC[C@H](NC(=O)[C@@H](N)Cc1c[n+](CCCCCCCc2ccccc2)cn1CCCCCCCc1ccccc1)C(N)=O [HDAMP-3] | 4 (6.1) µg/mL | 4 (6.1) µg/mL | 2 (3) µg/mL | 2 (3) µg/mL | 3 (4.6). µg/mL | 6.3 | 2 (3) µg/mL | 2 (3) µg/mL | 2 (3) µg/mL | fully resistant |  |
| N=C(N)NCCC[C@H](NC(=O)[C@H](Cc1cncn1CCCCCCCc1ccccc1)NC(=O)[C@@H](N)CCCNC(=N)N)C(N)=O [HDAMP-4] | 32 (49.9) µg/mL | 32 (49.9) µg/mL | 2 (3.1) µg/mL | 4 (6.2) µg/mL | 17.5 (27.3) µg/mL | 29.3 | 16 (24.9) µg/mL | 16 (24.9) µg/mL | 16 (24.9) µg/mL |  |  |
| N=C(N)NCCC[C@@H](N)C(=O)N[C@@H](Cc1c[n+](CCCCCCCc2ccccc2)cn1CCCCCCCc1ccccc1)C(=O)N[C@H](CCCNC(=N)N)C(N)=O [HDAMP-5] | 16 (19.6) µg/mL | 16 (19.6) µg/mL | 8 (9.8) µg/mL | 8 (9.8) µg/mL | 12.0 (14.7) µg/mL | 10.8 | 8 (9.8) µg/mL | 8 (9.8) µg/mL | 8 (9.8) µg/mL | fully resistant |  |
| N=C(N)NCCC[C@@H](NC(=O)[C@@H](N)Cc1c[n+](CCCCCCCc2ccccc2)cn1CCCCCCCc1ccccc1)C(N)=O [HDAMP-6] | 4 (6.1) µg/mL | 4 (6.1) µg/mL | 4 (6.1) µg/mL | 2 (3) µg/mL | 3.5 (5.3) µg/mL | 8 | 2 (3) µg/mL | 2 (3) µg/mL | 2 (3) µg/mL | fully resistant |  |
| CC[C@H](C)[C@H](NC(=O)[C@H](CCCCN)NC(=O)[C@H](CCC(=O)O)NC(=O)[C@H](CCCCN)NC(=O)[C@H](CO)NC(=O)[C@H](CCCCN)NC(=O)[C@H](CCCNC(=N)N)NC(=O)[C@H](Cc1ccccc1)NC(=O)[C@H](Cc1ccccc1)NC(=O)[C@H](CC(=O)O)NC(=O)CNC(=O)[C@H](CC(C)C)NC(=O)[C@@H](N)CC(C)C)C(=O)NCC(=O)N[C@@H](CCCCN)C(=O)N[C@@H](CCC(=O)O)C(=O)N[C@@H](Cc1ccccc1)C(=O)N[C@@H](CCCCN)C(=O)N[C@@H](CCCNC(=N)N)C(=O)N[C@H](C(=O)N[C@H](C(=O)N[C@@H](CCC(N)=O)C(=O)N[C@@H](CCCNC(=N)N)C(=O)N[C@H](C(=O)N[C@@H](CCCCN)C(=O)N[C@@H](CC(=O)O)C(=O)N[C@@H](Cc1ccccc1)C(=O)N[C@@H](CC(C)C)C(=O)N[C@@H](CCCNC(=N)N)C(=O)N[C@@H](CC(N)=O)C(=O)N[C@@H](CC(C)C)C(=O)N[C@H](C(=O)N1CCC[C@H]1C(=O)N[C@@H](CCCNC(=N)N)C(=O)N[C@H](C(=O)N[C@@H](CCC(=O)O)C(=O)N[C@@H](CO)C(=O)O)[C@@H](C)O)C(C)C)[C@@H](C)CC)C(C)C)[C@@H](C)CC [LL-37] |  |  |  |  |  |  |  |  |  |  | completely lost their antimicrobial activities |
| N=C(N)NCCC[C@H](NC(=O)[C@H](Cc1c[nH]c2ccccc12)NC(=O)[C@@H](N)CCCNC(=N)N)C(N)=O [RWR-NH2, reference compound] (H-Arg-Trp-Arg-NH2) | >64 (>124) µg/mL | >64 (>124) µg/mL | >64 (>124) µg/mL | >64 (>124) µg/mL | >64 (>124) µg/mL |  |  |  |  |  |  |
| WRWRWR-NH2 [(WR)3-NH2, reference compound] | 4 (3.8) µg/mL | 16 (15.3) µg/mL | 8 (7.7) µg/mL | 8 (7.7) µg/mL | 9 (8.6) µg/mL | 56.9 |  |  |  |  |  |
